Target: T1, AtPPO1 K270M (Arabidopsis thaliana, UniProt P55826, K270M)
T1 construct: expressed in transfected cells; host or cells: E. coli BL21(DE3) hemG, pET24a plasmid
T1 sequence (P55826 35-537 K270M): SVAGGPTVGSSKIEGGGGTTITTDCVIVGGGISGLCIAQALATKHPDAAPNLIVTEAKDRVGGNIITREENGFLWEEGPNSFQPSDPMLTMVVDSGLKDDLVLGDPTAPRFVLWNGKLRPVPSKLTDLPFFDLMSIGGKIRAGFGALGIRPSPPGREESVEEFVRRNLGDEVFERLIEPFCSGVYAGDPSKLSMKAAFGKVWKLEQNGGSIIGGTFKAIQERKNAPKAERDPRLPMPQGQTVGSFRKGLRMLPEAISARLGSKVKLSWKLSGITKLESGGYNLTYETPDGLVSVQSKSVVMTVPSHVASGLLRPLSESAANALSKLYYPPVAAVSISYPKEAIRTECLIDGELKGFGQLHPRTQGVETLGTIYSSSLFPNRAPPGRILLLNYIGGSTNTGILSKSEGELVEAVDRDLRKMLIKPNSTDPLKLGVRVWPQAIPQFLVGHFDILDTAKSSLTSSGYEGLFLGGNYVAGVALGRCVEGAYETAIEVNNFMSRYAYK
Experiment: E. coli hemG growth inhibition by herbicide, AtPPO1 variant
Format: cell-based
Details: read-out: percentage growth inhibition
How it was run: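 E. coli BL21(DE3) ΔhemG::CmR complemented by AtPPO1 variants (pET24a, T7, E. coli codon-optimised); TB + 0.1 mM IPTG, 1:100 inoculum; 6.25 ppm herbicide 0/E or 0.78 ppm herbicide B vs DMSO; 24 h, 37° C, 250 rpm; OD600 at 24 h → % growth inhibition.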

CC(C)N(C)S(=O)(=O)NC(=O)c1cc(-n2c(=O)cc(C(F)(F)F)n(C)c2=O)c(F)cc1Cl [Herbicide E, saflufenacil]
inhibition at 6.25 ppm: 29%

C#CCN1C(=O)C(F)(F)Oc2cc(F)c(-n3c(=O)n(C)c(=S)n(C)c3=O)cc21 [Herbicide B, trifludimoxazin]
inhibition at 0.78 ppm: 28%

CCOC(=O)[C@]1(C)CC(c2cc(-n3c(=O)n(C)c(=S)n(C)c3=O)c(F)cc2Cl)=NO1 [Herbicide D, ethyl (5S)-3-[2-chloro-5-(3,5-dimethyl-2,6-dioxo-4-thioxo-1,3,5-triazinan-1-yl)-4-fluoro-phenyl]-5-methyl-4H-isoxazole-5-carboxylate]
inhibition at 6.25 ppm: 23%
